# Source: US6358885B1, “Substituted phenylheterocyclic herbicides” (Mississippi State University, priority 1992, dated 2002)
# Tests used:
# [1] = system: chickweed; test: Test B preemergence/postemergence greenhouse plant response rating 0 to 10; format: in vivo, Stellaria media; conditions: 0 to 10 scale
# Procedure, shortened: (§1)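 Test chemicals, dissolved in a non-phytotoxic solvent, were applied to soil at planting and, at the same time, over foliage of seedlings at the one to four leaf stage.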
# [2] = system: corn; test: as above; format: in vivo, Zea mays; conditions: 0 to 10 scale
# Procedure, shortened: as §1
# [3] = system: crabgrass; test: as above; format: in vivo, Digitaria spp.; conditions: 0 to 10 scale
# Procedure, shortened: as §1
# [4] = system: morningglory; test: as above; format: in vivo, Ipomoea hederacea; conditions: 0 to 10 scale
# Procedure, shortened: as §1
# [5] = system: rape; test: as above; format: in vivo, Brassica napus; conditions: 0 to 10 scale
# Procedure, shortened: as §1
# [6] = system: sorghum; test: as above; format: in vivo, Sorghum bicolor; conditions: 0 to 10 scale
# Procedure, shortened: as §1
# [7] = system: soybean; test: as above; format: in vivo, Glycine max; conditions: 0 to 10 scale
# Procedure, shortened: as §1
# [8] = system: wheat; test: as above; format: in vivo, Triticum aestivum; conditions: 0 to 10 scale
# Procedure, shortened: as §1
# [9] = system: wild oat; test: as above; format: in vivo, Avena fatua; conditions: 0 to 10 scale
# Procedure, shortened: as §1
# [10] = system: purple nutsedge; test: as above; format: in vivo, Cyperus rotundus; conditions: 0 to 10 scale
# Procedure, shortened: as §1
# [11] = system: barley; test: Test C preemergence/postemergence greenhouse plant response rating 0 to 100; format: in vivo, Hordeum vulgare; conditions: POSTEMERGENCE
# Procedure, shortened: (§2)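 Compounds in non-phytotoxic solvent went onto sandy loam before emergence (seeded one day earlier) or onto plants at the one-to-four leaf stage. Duck salad was treated via flood water (~2.5 cm, maintained) over silt loam.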
# [12] = system: bedstraw; test: as above; format: in vivo, Galium aparine; conditions: POSTEMERGENCE
# Procedure, shortened: as §2
# [13] = system: chickweed; test: as above; format: in vivo, Stellaria media; conditions: POSTEMERGENCE
# Procedure, shortened: as §2
# [14] = system: downy brome; test: as above; format: in vivo, Bromus tectorum; conditions: POSTEMERGENCE
# Procedure, shortened: as §2
# [15] = system: morningglory; test: as above; format: in vivo, Ipomoea hederacea; conditions: POSTEMERGENCE
# Procedure, shortened: as §2
# [16] = system: soybean; test: as above; format: in vivo, Glycine max; conditions: POSTEMERGENCE
# Procedure, shortened: as §2
# [17] = system: wild buckwheat; test: as above; format: in vivo, Polygonum convolvulus; conditions: POSTEMERGENCE
# Procedure, shortened: as §2
# [18] = system: umbrella sedge; test: Test C flood test plant response rating 0 to 100; format: in vivo, Cyperus difformis
# Procedure, shortened: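 Compounds in non-phytotoxic solvent applied preemergence to sandy loam one day after planting, postemergence at the 1–4 leaf stage, or to ~2.5 cm floodwater over silt loam.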
compound,measurement,setting,value
COCN1C(=O)COc2cc(F)c(-c3nn4c(c3Br)CCCC4)cc21 [Compound 67],"Plant response rating, Chickweed","[1]; POSTEMERGENCE, Rate 10 g/ha",7
same,"Plant response rating, Chickweed","[1]; POSTEMERGENCE, Rate 50 g/ha",9
same,"Plant response rating, Chickweed","[1]; PREEMERGENCE, Rate 10 g/ha",0
same,"Plant response rating, Chickweed","[1]; PREEMERGENCE, Rate 50 g/ha",6
same,"Plant response rating, Corn","[2]; POSTEMERGENCE, Rate 10 g/ha",3
same,"Plant response rating, Corn","[2]; POSTEMERGENCE, Rate 50 g/ha",4
same,"Plant response rating, Corn","[2]; PREEMERGENCE, Rate 50 g/ha",2
same,"Plant response rating, Crabgrass","[3]; POSTEMERGENCE, Rate 10 g/ha",5
same,"Plant response rating, Crabgrass","[3]; POSTEMERGENCE, Rate 50 g/ha",6
same,"Plant response rating, Crabgrass","[3]; PREEMERGENCE, Rate 10 g/ha",0
same,"Plant response rating, Crabgrass","[3]; PREEMERGENCE, Rate 50 g/ha",2
same,"Plant response rating, Morningglory","[4]; POSTEMERGENCE, Rate 10 g/ha",10
same,"Plant response rating, Morningglory","[4]; POSTEMERGENCE, Rate 50 g/ha",10
same,"Plant response rating, Morningglory","[4]; PREEMERGENCE, Rate 50 g/ha",2
same,"Plant response rating, Rape","[5]; POSTEMERGENCE, Rate 10 g/ha",9
same,"Plant response rating, Rape","[5]; POSTEMERGENCE, Rate 50 g/ha",10
same,"Plant response rating, Rape","[5]; PREEMERGENCE, Rate 50 g/ha",3
same,"Plant response rating, Sorghum","[6]; POSTEMERGENCE, Rate 10 g/ha",5
same,"Plant response rating, Sorghum","[6]; POSTEMERGENCE, Rate 50 g/ha",6
same,"Plant response rating, Sorghum","[6]; PREEMERGENCE, Rate 50 g/ha",2
same,"Plant response rating, Soybean","[7]; POSTEMERGENCE, Rate 10 g/ha",8
same,"Plant response rating, Soybean","[7]; POSTEMERGENCE, Rate 50 g/ha",9
same,"Plant response rating, Soybean","[7]; PREEMERGENCE, Rate 50 g/ha",0
same,"Plant response rating, Wheat","[8]; POSTEMERGENCE, Rate 10 g/ha",5
same,"Plant response rating, Wheat","[8]; POSTEMERGENCE, Rate 50 g/ha",6
same,"Plant response rating, Wheat","[8]; PREEMERGENCE, Rate 50 g/ha",0
same,"Plant response rating, Wild oat","[9]; POSTEMERGENCE, Rate 10 g/ha",6
same,"Plant response rating, Wild oat","[9]; POSTEMERGENCE, Rate 50 g/ha",7
same,"Plant response rating, Wild oat","[9]; PREEMERGENCE, Rate 50 g/ha",5
same,"Plant response rating, Nutsedge","[10]; POSTEMERGENCE, Rate 10 g/ha",1
same,"Plant response rating, Nutsedge","[10]; POSTEMERGENCE, Rate 50 g/ha",3
same,"Plant response rating, Nutsedge","[10]; PREEMERGENCE, Rate 50 g/ha",0
same,Plant response rating Barley Igri,"[11]; 62 g/ha, 0 to 100 scale",50
same,"Plant response rating (0 to 100), Barley Igri",[11]; Rate 1 g/ha,20
same,"Plant response rating (0 to 100), Barley Igri",[11]; Rate 4 g/ha,30
same,"Plant response rating (0 to 100), Barley Igri",[11]; Rate 16 g/ha,30
same,"Plant response rating, Bedstraw","[12]; 62 g/ha, 0 to 100 scale",80
same,"Plant response rating (0 to 100), Bedstraw",[12]; Rate 1 g/ha,40
same,"Plant response rating (0 to 100), Bedstraw",[12]; Rate 4 g/ha,70
same,"Plant response rating (0 to 100), Bedstraw",[12]; Rate 16 g/ha,80
same,"Plant response rating, Chickweed","[13]; 62 g/ha, 0 to 100 scale",100
same,"Plant response rating (0 to 100), Chickweed",[13]; Rate 1 g/ha,70
same,"Plant response rating (0 to 100), Chickweed",[13]; Rate 4 g/ha,70
same,"Plant response rating (0 to 100), Chickweed",[13]; Rate 16 g/ha,95
same,Plant response rating Downy Brome,"[14]; 62 g/ha, 0 to 100 scale",60
same,"Plant response rating (0 to 100), Downy Brome",[14]; Rate 1 g/ha,20
same,"Plant response rating (0 to 100), Downy Brome",[14]; Rate 4 g/ha,50
same,"Plant response rating (0 to 100), Downy Brome",[14]; Rate 16 g/ha,60
same,"Plant response rating, Morningglory","[15]; 62 g/ha, 0 to 100 scale",100
same,"Plant response rating (0 to 100), Morningglory",[15]; Rate 1 g/ha,50
same,"Plant response rating (0 to 100), Morningglory",[15]; Rate 4 g/ha,70
same,"Plant response rating (0 to 100), Morningglory",[15]; Rate 16 g/ha,100
same,"Plant response rating, Soybean","[16]; 62 g/ha, 0 to 100 scale",95
same,"Plant response rating (0 to 100), Soybean",[16]; Rate 1 g/ha,30
same,"Plant response rating (0 to 100), Soybean",[16]; Rate 4 g/ha,50
same,"Plant response rating (0 to 100), Soybean",[16]; Rate 16 g/ha,80
same,"Plant response rating, Wild buckwheat","[17]; 62 g/ha, 0 to 100 scale",100
same,"Plant response rating (0 to 100), Wild buckwheat",[17]; Rate 4 g/ha,70
same,"Plant response rating (0 to 100), Wild buckwheat",[17]; Rate 16 g/ha,100
same,"Plant response rating (0 to 100), Umbrella sedge","[18]; POSTEMERGENCE section, flood test, Rate 1 g/ha",0
same,"Plant response rating (0 to 100), Umbrella sedge","[18]; POSTEMERGENCE section, flood test, Rate 4 g/ha",0
same,"Plant response rating (0 to 100), Umbrella sedge","[18]; Rate 16 g/ha, under POSTEMERGENCE head (flood test species)",30
same,Plant response rating Umbrella sedge,"[18]; flood test species listed under POSTEMERGENCE, 62 g/ha, 0 to 100 scale",70
